Assay results reported in patent publication US10047164B2, “Methods and compositions for the treatment of pancreatic cancer” (Opsona Therapeutics Ltd., priority 2012, dated 2018).

Legend:
[1] = test system: pancreatic tumours in KPC mice; settings: Science 2009; cited from earlier work
[2] = test system: advanced pancreatic cancer; settings: patients with advanced pancreatic cancer; cited from earlier work
[3] = test system: KPC cell line orthotopic pancreatic tumours; settings: treatment at the induction of tumours; over 49 days (FIG. 1); OPN-305 10 mg/kg i.v. once weekly, Gemcitabine 100 mg/kg i.p. twice weekly, Abraxane 10 mg/kg i.v. day 0
Text: A preclinical mouse model of pancreatic cancer was established where a KPC cell line derived from the genetically engineered ‘KPC’ mouse with pancreas-specific mutant Kras and mutant TP53 genetic background (LSL-KrasG12D; p53R172H, Pdx1-Cre) backcrossed several generations with C57Bl/6 mice was implanted as allograft, orthotopically in the pancreas of C57bl/6 (B6) mice. In brief, a subcutaneous tumour was first established by injecting 2.5 million cells under the skin of C57Bl/6 mice. Ten days later, the tumour was excised and chopped into smaller pieces, roughly 1 mm^3 in size, and implanted orthotopically into pancreas of C57Bl/6 mice. For orthotopic implantation into the pancreas, each mouse was anesthetized with 2.5% Avertin, 0.013 ml/g B.W. All surgical procedures were performed under aseptic conditions with use of sterile gloves and autoclaved instruments. The skin was disinfected with betadine followed by alcohol and this procedure was repeated twice. A left lateral oblique incision was made through the skin and then through the body wall just below the stomach. […] The growth of orthotopic tumours were measured over the period of 12-16 weeks by non-invasive ultrasound (Vevo2100, VisualSonic). […] The orthotopically implanted tumours were measured by ultrasound 5 days post-surgery and randomized into various treatment arms as below: • 1. […]

Row | Compound | tumours demonstrating a change in growth kinetics after treatment [1] [%] | improvement in median survival duration [2] [week] | tumour volume [3]
1 | Nc1ccn([C@@H]2O[C@H](CO)[C@@H](O)C2(F)F)c(=O)n1 [Gemcitabine] | 12 | 5 | 
2 | OPN-305: humanized version of T2.5, a murine IgG1 anti-TLR2 antibody; described in WO2011/003925 |  |  | reduced tumour volume to a greater extent than treatment with a combination of Gemcitabine+Abraxane
